Source: patent publication US20090069623A1, “METHODS AND COMPOSITIONS FOR TREATMENT OR PREVENTION OF RADIATION-INDUCED FIBROSIS” (Virginia Commonwealth University Intellectual Property …, priority 2007, published 2009)

What was measured:
Assay type in all cases: cell-based, human
[1] = tested on: CTGF, fibronectin (FN), collagen type IV (Col IV) mRNA; assay: RT-PCR of mRNA expression in irradiated HFL-1 cells treated with simvastatin; settings: simvastatin pretreatment 6 hours, 10 Gy, 20 hours, FIG. 8A
Procedure: (§1) For statin treatment experiments, cells were grown overnight in 35 mm plates (6-well plates were also used in some studies) to form a 75-80% confluent monolayer. The cells were then washed with PBS, and the media was changed to SFM (800 μL).
RT-PCR analysis of CTGF, COL-IV, FN and hβ2M. […] One microgram of purified total RNA was used for RT-PCR analysis using the ThermoScript RT-PCR System (Invitrogen, Inc.) according to the protocol of the manufacturer. The sequences of the forward and reverse primers are as follows: CTGF forward primer (SEQ ID NO 1) 5′-[…]-3′, CTGF reverse primer (SEQ ID NO 2) 5′-[…]-3′; COL-IV forward primer (SEQ ID NO 3) 5′-[…]-3′, COL-IV reverse primer (SEQ ID NO 4) 5′-[…]-3′; FN forward primer (SEQ ID NO 5) 5′-[…]-3′, FN reverse primer (SEQ ID NO 6) 5′-[…]-3′; hβ2M forward primer (SEQ ID NO 7) 5′-[…]-3′; hβ2M reverse primer (SEQ ID NO 8) 5′-[…]-3′. The CTGF PCR product is 242 bp in length, the COL-IV PCR product is 138 bp, the FN PCR product is 203 bp, and hβ2M PCR product is 278 bp. For PCR amplification, 25 cycles were performed for the amplification of CTGF, COL-IV, FN and hβ2M (denaturation: 94° C., 45 sec; annealing: 55° C., 45 sec; polymerization: 72° C., 1 min). Amplified products were separated by electrophoresis on a 1.0% agarose gel, and DNA was visualized by ethidium bromide staining.

CTGF, fibronectin [2] = assay: Western blot of HFL-1 cells treated with TGF-β1 and simvastatin; settings: TGF-β1 plus simvastatin, three days, FIG. 7B
Procedure: (§2) Cell Culture and Treatment. Normal human fetal lung fibroblasts (HFL-1) were purchased from the American Type Culture Collection (ATCC Number: CCL-153) and cultured in Ham's F12K medium (American Type Culture Collection) supplemented with 2 mM L-glutamine adjusted to contain 1.5 g/L sodium bicarbonate and 10% fetal bovine serum. Cells were maintained in humidified 5% CO2 at 37° C. Human dermal fibroblasts (HDF), derived from the dermis of normal human adult skin, were purchased from Invitrogen, Inc. and cultured in Medium-106 (Invitrogen, Inc., Catalogue No. M-106-500) containing LSGS Kit (Invitrogen, Inc., Catalogue No. S-003-K) prior to use. […]
(§3) Harvesting Culture Media and Cell Lystates. For analysis of extracellular CTGF, fibronectin, and α-tubulin, cell culture media was collected, centrifuged to remove cellular debris, aliquoted, and frozen at −70° C. until ready for use. […]
(§4) Western blot analysis of HFL-1 whole cell proteins. […] After washing the blot, the antibodies were detected by the enhanced chemiluminescence method (PerkinElmer Life Sciences Inc.).
(§5) The separated proteins were then transferred to nitrocellulose, and Western immunoblotting was performed with antibodies specific for CTGF, fibronectin, and α-tubulin. […] As a control for protein loading, α-tubulin expression in HFL-1 cells was also determined.

CTGF, fibronectin [3] = assay: Western blot of HDF cells treated with TGF-β1 and simvastatin; settings: 10 ng/ml TGF-β1 plus simvastatin, three days, FIG. 10B
Procedure: as §2, §3, §4, §5

CTGF, fibronectin [4] = assay: Western blot of irradiated HFL-1 cells treated with HMG-CoA inhibitors; settings: simvastatin pretreatment 6 hours, 5 Gy, three days, FIG. 8B
Procedure: as §1
Harvesting Culture Media and Cell Lystates. For analysis of extracellular CTGF, fibronectin, and α-tubulin, cell culture media was collected, centrifuged to remove cellular debris, aliquoted, and frozen at −70° C. until ready for use. For analysis of intracellular CTGF, fibronectin, and α-tubulin, cell lysates were harvested using 200 μL of HBSST lysis buffer (HBSS containing 1 mM MgSO4, 1 mM CaCl2, 4 mM NaHCO3, 0.5% Triton X-100, protease inhibitor cocktail). Cellular debris was removed by centrifugation.
Western blot analysis of HFL-1 whole cell proteins. […] Primary antibodies for CTGF and fibronectin were diluted at 1:600 and were incubated at 4° C. overnight with shaking. Primary antibodies for α-tubulin were diluted at 1:4,000 and were incubated at 4° C. overnight with shaking. Corresponding secondary antibodies were diluted at 1:6,000 and were incubated at room temperature for 1 hour with shaking. After washing the blot, the antibodies were detected by the enhanced chemiluminescence method (PerkinElmer Life Sciences Inc.).
as §5, with “Cells were harvested, and cell lysates were separated by SDS-PAGE. The” for “The”
Cells were harvested, and cell lysates were separated by SDS-PAGE. The separated proteins were then transferred to nitrocellulose, and Western immunoblotting was performed with antibodies specific for CTGF, fibronectin, and α-tubulin. FIG. 8C is a Western blot of HFL-1 cells exposed to radiation and treated with HMG-CoA inhibitors.

[5] = tested on: CTGF, fibronectin (FN), collagen type IV (Col IV) mRNA; assay: RT-PCR of TGF-β1-induced mRNA expression in HDF cells treated with simvastatin; settings: 10 ng/ml TGF-β1 for 20 hours, FIG. 10A
Procedure: Cell Culture and Treatment. Normal human fetal lung fibroblasts (HFL-1) were purchased from the American Type Culture Collection (ATCC Number: CCL-153) and cultured in Ham's F12K medium (American Type Culture Collection) supplemented with 2 mM L-glutamine adjusted to contain 1.5 g/L sodium bicarbonate and 10% fetal bovine serum. Cells were maintained in humidified 5% CO2 at 37° C. Human dermal fibroblasts (HDF), derived from the dermis of normal human adult skin, were purchased from Invitrogen, Inc. and cultured in Medium-106 (Invitrogen, Inc., Catalogue No. M-106-500) containing LSGS Kit (Invitrogen, Inc., Catalogue No. S-003-K) prior to use. After reaching 75-80% confluence, the medium was changed to serum free medium (SFM) for irradiation with different dose 1Gy, 2.5Gy, 5Gy, 7.5Gy and 10 Gy by using ^137Se. Alternatively, cells were treated with 5 ng/ml TGF-β1 (Sigma-Aldrich, Inc., Catalogue No. T7039) to stimulate CTGF production. The cells were then kept for 3 days in humidified 5% CO2 at 37° C. and subjected to Western immunoblot.^1 ^1What are the culture conditions (e.g., media) for M12 cells used in FIG. 3?
RT-PCR analysis of CTGF, COL-IV, FN and hβ2M. […]
The ability of statins to inhibit TGF-β1-mediated induction of CTGF, fibronectin, and collagen type IV was assessed in HDF cells. […]

CCC(C)(C)C(=O)O[C@H]1C[C@@H](C)C=C2C=C[C@H](C)[C@H](CC[C@@H]3C[C@@H](O)CC(=O)O3)[C@H]21 [simvastatin, 2,2-dimethyl-butanoic acid(1S,3R,7S,8S,8aR)-1,2,3,7,8,8a-hexahydro-3,7-dimethyl-8-[2-[(2R,4R)-tetrahydro-4-hydroxy-6-oxo-2H-pyran-2-yl]ethyl]-1-naphthalenylester]
expression of CTGF, FN, and Col-IV mRNA [1]: decrease in the expression of CTGF, FN, and Col-IV mRNA | fibronectin protein expression (CTGF, fibronectin [2]): decrease in protein expression or fibronectin | fibronectin protein expression (CTGF, fibronectin [3]): decrease in protein expression of fibronectin | fibronectin protein expression (CTGF, fibronectin [4]): decrease in protein expression or fibronectin | CTGF, FN, and Col IV mRNA expression ([5]; 0.1 μM simvastatin): reduction in CTGF, FN, and Col IV mRNA expression | CTGF, FN, and Col IV mRNA expression ([5]; increasing concentration of simvastatin): reduction in CTGF, FN, and Col IV mRNA expression became more pronounced
